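Step 1: Grow cells in 96-well plates. Step 2: Expose to compound for 48 hours at 5 concentrations. Step 3: Interpolate endpoints linearly; if unreached, use highest concentration. TGI: total growth inhibition.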
What was measured:
Assay in all cases: NCI anticancer screen, dose series, 48 h
[1] = tested on: 786-0 renal
[2] = tested on: A498 renal
[3] = tested on: A549 NSCLC
[4] = tested on: ACHN renal
[5] = tested on: CAKI-1 renal
[6] = tested on: COLO 205 colon
[7] = tested on: DLD-1 colon
[8] = tested on: DMS 114 small cell lung
[9] = tested on: DMS 273 small cell lung
[10] = tested on: EKVX NSCLC
[11] = tested on: HCT-116 colon
[12] = tested on: HCT-15 colon
[13] = tested on: HL-60(TB) leukemia
[14] = tested on: HOP-92 NSCLC
[15] = tested on: HT29 colon
[16] = tested on: IGROV1 ovarian
[17] = tested on: K-562 leukemia
[18] = tested on: KM20L2 colon
[19] = tested on: LOX IMVI melanoma
[20] = tested on: LXFL 529 NSCLC
[21] = tested on: M14 melanoma
[22] = tested on: M19-MEL melanoma
[23] = tested on: MALME-3M melanoma
[24] = tested on: MOLT-4 leukemia
[25] = tested on: NCI-H226 lung
[26] = tested on: NCI-H23 lung
[27] = tested on: NCI-H522 lung
[28] = tested on: OVCAR-3 ovarian
[29] = tested on: OVCAR-4 ovarian
[30] = tested on: OVCAR-5 ovarian
[31] = tested on: OVCAR-8 ovarian
[32] = tested on: RPMI-8226 leukemia
[33] = tested on: RXF 393 renal
[34] = tested on: RXF-631 renal
[35] = tested on: SF-268 CNS
[36] = tested on: SF-295 CNS
[37] = tested on: SF-539 CNS
[38] = tested on: SK-MEL-2 melanoma
[39] = tested on: SK-MEL-28 melanoma
[40] = tested on: SK-MEL-5 melanoma
[41] = tested on: SK-OV-3 ovarian
[42] = tested on: SN12C renal
[43] = tested on: SNB-19 CNS
[44] = tested on: SNB-75 CNS
[45] = tested on: SNB-78 CNS
[46] = tested on: SW-620 colon
[47] = tested on: TK-10 renal
[48] = tested on: UACC-257 melanoma
[49] = tested on: UACC-62 melanoma
[50] = tested on: UO-31 renal
[51] = tested on: XF 498 CNS
[52] = tested on: BT-549 breast
[53] = tested on: CCRF-CEM leukemia
[54] = tested on: DU-145 prostate
[55] = tested on: HCC-2998 colon
[56] = tested on: HOP-62 NSCLC
[57] = tested on: HS 578T breast
[58] = tested on: KM12 colon
[59] = tested on: MCF7 breast
[60] = tested on: MDA-MB-231 breast
[61] = tested on: MDA-MB-435
[62] = tested on: MDA-N
[63] = tested on: NCI-H460 lung
[64] = tested on: NCI/ADR-RES ovarian
[65] = tested on: PC-3 prostate
[66] = tested on: SR leukemia
[67] = tested on: T-47D breast
[68] = tested on: U251 CNS

Measured: TGI

N#C/C(=C1\OC(=N)C(c2ccc(Cl)cc2Cl)C1=O)c1ccc(Cl)cc1Cl (centres undefined)
not listed: [52] | [53] | [54] | [55] | [56] | [57] | [58] | [59] | [60] | [61] | [62] | [63] | [64] | [65] | [66] | [67] | [68]
> 100 µM: all other assays above

O=c1[nH]c2nc[nH]c2c(=O)n1C1CCCCC1
not listed: [7] | [8] | [9] | [18] | [19] | [20] | [22] | [34] | [45] | [51]
> 100 µM: all other assays above
